Data as given in patent US20100173835A1, “Peptides for Treatment of Obesity” (Novo Nordisk A/S, priority 2008, published 2010).
Converted amounts (≈) assume the structure as drawn. Read-outs that look alike come from different tables or passages of the source. One block for each compound: values may come before it. Where a SMILES comes first, the peptide text is derived from it. Bridges are numbered along the chain shown (N, C = ends). [ ]: non-standard residue; d: D form. The star is where a group is joined. Palmitoyl(16-(5-tetrazolyl)) = O=C(CCCCCCCCCCCCCCCc1nnn[nH]1)*; Lys(CH2CO2H)2 = N[C@@H](CCCCN(CC(=O)O)CC(=O)O)C(=O)O; C16 diacid = O=C(O)CCCCCCCCCCCCCCC(=O)*; Hyp = O=C(O)[C@@H]1C[C@@H](O)CN1; NTA = O=C(O)CN(CC(=O)O)CC(=O)*; Nle = CCCC[C@H](N)C(=O)O; AEEA = NCCOCCOCC(=O)O

Tests used:
[1] = biological target: T1, human MC4 receptor (Homo sapiens, UniProt P32245); assay: Assay (V) Melanocortin Receptor 4 (MC4) binding assay; conditions: 125NDP-α-MSH binding, BHK cell membranes
T1 construct: expressed in transfected cells
T1 sequence (P32245 whole entry): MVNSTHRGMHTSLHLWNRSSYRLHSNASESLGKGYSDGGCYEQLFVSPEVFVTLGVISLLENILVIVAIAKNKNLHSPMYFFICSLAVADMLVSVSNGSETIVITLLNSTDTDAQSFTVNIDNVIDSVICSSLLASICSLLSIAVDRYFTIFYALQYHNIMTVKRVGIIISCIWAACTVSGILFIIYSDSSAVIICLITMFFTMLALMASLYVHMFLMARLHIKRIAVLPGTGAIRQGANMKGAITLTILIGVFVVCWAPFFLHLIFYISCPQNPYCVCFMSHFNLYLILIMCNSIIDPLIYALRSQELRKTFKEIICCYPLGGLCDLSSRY
Procedure: Assay (V)—Melanocortin Receptor 4 (MC4) Binding Assay
In vitro ^125NDP-α-MSH binding to recombinant BHK cells expressing human MC4 receptor (filtration assay).
The assay is performed in 5 ml minisorb vials (Sarstedt No. 55.526) or in 96-well filterplates (Millipore MADVN 6550), and using BHK cells expressing the human MC4 receptor using BHK cells stably expressing the human MC4 receptor. The membranes were prepared from frozen or fresh cells that were homogenized in 20 mM HEPES pH 7.1, 5 mM MgCl2 and 1 mg/ml bacitracin and centrifuged at 15000 rpm at 4° C., 10 min in a Sorvall RC 5B plus, SS-34 rotor. The supernatant was discarded, and the pellets were re-suspended in buffer, homogenized and centrifuged two more times. The final pellets were resuspended in the buffer mentioned above, and the protein concentration was measured and adjusted with buffer to 14 to 17 mg/ml and the membrane preparation were kept at −80° C. until assay. The assay was run directly on a dilution of this cell membrane suspension, without any further preparation. The BHK cell membranes are kept at −80° C. until assay, and the assay is run directly on a dilution of this cell membrane suspension, without further preparation. The suspension is diluted to give maximally 10% specific binding, i.e. to approx. 50-100 fold dilution. The assay is performed in a total volume of 200 μl: 50 μl of cell suspension, 50 μl of ^125NDP-α-MSH (≈79 pM in final concentration), 50 μl of test compound and 50 μl binding buffer (pH 7) mixed and incubated for 2 h at 25° C. [binding buffer: 25 mM HEPES, pH 7.0, 1 mM CaCl2, 1 mM MgSO4, 1 mM EGTA, 0.02% Bacitracin, 0.005% Tween™ 20 and 0.1% HSA or, alternatively, 0.1% ovalbumin (Sigma; catalogue No. A-5503)]. Test compounds are dissolved in DMSO and diluted in binding buffer. Radiolabelled ligand and membranes are diluted in binding buffer. The incubation is stopped by dilution with 2×100 μl ice-cold 0.9% NaCl. The radioactivity retained on the filters is counted using a Cobra II auto gamma counter.
(§1) The data are analysed by non-linear regression analysis of binding curves, using the Windows™ program GraphPad™ Prism (GraphPad Software, USA).

[2] = biological target: T2, MC1 receptor (Homo sapiens, UniProt Q01726); assay: Assay (IV) Melanocortin Receptor 1 (MC1) binding assay
T2 construct: expressed in transfected cells
T2 sequence (Q01726 whole entry): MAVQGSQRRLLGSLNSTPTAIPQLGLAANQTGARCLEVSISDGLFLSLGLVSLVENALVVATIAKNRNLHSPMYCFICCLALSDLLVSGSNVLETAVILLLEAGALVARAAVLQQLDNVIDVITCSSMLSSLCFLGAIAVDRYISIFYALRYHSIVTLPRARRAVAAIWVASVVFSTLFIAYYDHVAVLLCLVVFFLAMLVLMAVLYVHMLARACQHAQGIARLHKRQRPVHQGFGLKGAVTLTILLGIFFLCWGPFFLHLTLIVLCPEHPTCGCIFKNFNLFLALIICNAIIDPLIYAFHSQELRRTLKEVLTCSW
Procedure: Assay (IV)—Melanocortin Receptor 1 (MC1) Binding Assay
The MC1 receptor binding assay is performed on BHK cell membranes stably expressing the MC1 receptor. The assay is performed in a total volume of 250 NI: 25 μl of ^125NDP-α-MSH (22 pM in final concentration), 25 μl of test compound/control and 200 μl of cell membrane (25 μg/ml). Test compounds are dissolved in DMSO. Radioactively labeled ligand, membranes and test compounds are diluted in buffer: 25 mM HEPES, pH 7.4, 0.1 mM CaCl2, 1 mM MgSO4, 1 mM EDTA, 0.1% HSA and 0.005% Tween™ 20. Alternatively, HSA may be substituted with ovalbumin. The samples are incubated at 30° C. for 90 min. in Costar round-bottom microtiter plates. Incubation is terminated by filtration on a Packard harvester filtermate. Rapid filtration through Packard Unifilter-96 GF/B filters pre-treated with polyethylenimine (PerkinElmer 6005277). The filters are washed with ice-cold 0.9% NaCl 8-10 times. The plates is air dried at app. 55° C. for 30 min, and 50 μl Microscint 0 (Packard, cat. No. 6013616) is added to each well. The plates are counted in a Topcounter (1 min/well).
as §1

[3] = Solubility data of compounds in water over the pH range; type: physicochemical

SMILES: CCCC[C@H](NC(=O)[C@H](CCCCN(CC(=O)O)CC(=O)O)NC(=O)[C@H](Cc1c[nH]cn1)NC(=O)[C@H](CCC(N)=O)NC(=O)[C@H](CO)NC(=O)[C@H](CO)NC(=O)[C@H](CCC(N)=O)NC(=O)[C@@H](CO)NC(=O)CNC(=O)COCCOCCNC(=O)COCCOCCNC(=O)CCCCCCCCCCCCCCCc1nnn[nH]1)C(=O)N[C@H]1CCC(=O)NCCCC[C@@H](C(N)=O)NC(=O)[C@H](Cc2c[nH]c3ccccc23)NC(=O)[C@H](CCCNC(=N)N)NC(=O)[C@@H](Cc2ccccc2)NC(=O)[C@@H]2C[C@@H](O)CN2C1=O [Example 3, (2-{2-[2-(2-{2-[16-(Tetrazol-5-yl)hexadecanoylamino]ethoxy}ethoxy)acetylamino]ethoxy}ethoxy)acetyl-Gly-D-Ser-Gln-Ser-Ser-Gln-His-Lys(biscarboxymethyl)-Nle-c[Glu-Hyp-D-Phe-Arg-Trp-Lys]-NH2] ({Palmitoyl(16-(5-tetrazolyl))-AEEA-AEEA}-G[dS]QSSQH[Lys(CH2CO2H)2][Nle]E[Hyp][dF]RWK-NH2; lactam 10-15)
Ki ([1]; Assay (V) MC4 [Ki] (nM)): 1.95 nM
Ki [2]: > 10000 nM
solubility at 3 days ([3]; pH 2.95, pH 2.95, read-out: Conc (solubility in water)): 435 µM (≈ 1100 µg/mL)
solubility at 3 days ([3]; pH 3.88, pH 3.88, read-out: Conc (solubility in water)): 570 µM (≈ 1440 µg/mL)
solubility at 3 days ([3]; pH 4.82, pH 4.82, read-out: Conc (solubility in water)): 429 µM (≈ 1080 µg/mL)
solubility at 3 days ([3]; pH 4.84, pH 4.84, read-out: Conc (solubility in water)): 324 µM (≈ 818 µg/mL)
solubility at 3 days ([3]; pH 5.18, pH 5.18, read-out: Conc (solubility in water)): 75 µM (≈ 189 µg/mL)
solubility at 3 days ([3]; pH 6.1, pH 6.10, read-out: Conc (solubility in water)): 39 µM (≈ 98.5 µg/mL)
solubility at 3 days ([3]; pH 6.95, pH 6.95, read-out: Conc (solubility in water)): 87 µM (≈ 220 µg/mL)
solubility at 3 days ([3]; pH 7.15, pH 7.15, read-out: Conc (solubility in water)): 190 µM (≈ 480 µg/mL)
solubility at 3 days ([3]; pH 7.24, pH 7.24, read-out: Conc (solubility in water)): 256 µM (≈ 646 µg/mL)
solubility at 3 days ([3]; pH 7.29, pH 7.29, read-out: Conc (solubility in water)): 316 µM (≈ 798 µg/mL)

Ki ([1]; read-out: Assay (V) MC4 [Ki]): 14.7 nM
Ki ([2]; 125NDP-α-MSH binding, BHK cell membranes, read-out: Assay (IV) MC1 Ki): > 10000 nM
solubility at 3 days ([3]; pH 4.04): 26 µM (≈ 53.2 µg/mL)
solubility at 3 days ([3]; pH 4.34): 32 µM (≈ 65.5 µg/mL)
solubility at 3 days ([3]; pH 4.74): 40 µM (≈ 81.9 µg/mL)
solubility at 3 days ([3]; pH 5.21): 58 µM (≈ 119 µg/mL)
solubility at 3 days ([3]; pH 5.67): 103 µM (≈ 211 µg/mL)
solubility at 3 days ([3]; pH 6.26): 108 µM (≈ 221 µg/mL)
solubility at 3 days ([3]; pH 6.29): 106 µM (≈ 217 µg/mL)
solubility at 3 days ([3]; pH 6.87): 117 µM (≈ 239 µg/mL)
solubility at 3 days ([3]; pH 7.6): 116 µM (≈ 237 µg/mL)
solubility at 3 days ([3]; pH 7.61): 107 µM (≈ 219 µg/mL)
SMILES: CCCC[C@H](NC(=O)[C@H](CCCCNC(=O)CN(CC(=O)O)CC(=O)O)NC(=O)[C@H](CO)NC(=O)[C@H](CCC(N)=O)NC(=O)[C@H](CO)NC(=O)CNC(=O)COCCOCCNC(=O)CCCCCCCCCCCCCCC(=O)O)C(=O)N[C@H]1CCC(=O)NCCCC[C@@H](C(N)=O)NC(=O)[C@H](Cc2c[nH]c3ccccc23)NC(=O)[C@H](CCCNC(=N)N)NC(=O)[C@@H](Cc2ccccc2)NC(=O)[C@@H]2C[C@@H](O)CN2C1=O [Example 21, {2-[2-(15-Carboxypentadecanoylamino)ethoxy]ethoxy}acetyl-Gly-Ser-Gln-Ser-Lys(BCMA)-Nle-c[Glu-Hyp-D-Phe-Arg-Trp-Lys]-NH2] ({C16 diacid-AEEA}-GSQSK(NTA)[Nle]E[Hyp][dF]RWK-NH2; lactam 7-12)
